Measurements as given in ChEMBL document CHEMBL1130781, “Structure-based design and synthesis of a series of hydroxamic acids with a quaternary-hydroxy group in P1 as inhibitors of matrix metalloproteinases” (Bioorg Med Chem Lett, 1998).
One block for each molecule: values may come before it.

Legend:
Stromelysin-1 = Stromelysin-1 (Homo sapiens, UniProt P08254); assay: Binding affinity against human matrix metalloprotease-3.
Interstitial collagenase = biological target: T1, Interstitial collagenase (Homo sapiens, UniProt P03956); assay: Binding affinity was evaluated against matrix metalloprotease-1
T1 sequence (P03956 whole entry): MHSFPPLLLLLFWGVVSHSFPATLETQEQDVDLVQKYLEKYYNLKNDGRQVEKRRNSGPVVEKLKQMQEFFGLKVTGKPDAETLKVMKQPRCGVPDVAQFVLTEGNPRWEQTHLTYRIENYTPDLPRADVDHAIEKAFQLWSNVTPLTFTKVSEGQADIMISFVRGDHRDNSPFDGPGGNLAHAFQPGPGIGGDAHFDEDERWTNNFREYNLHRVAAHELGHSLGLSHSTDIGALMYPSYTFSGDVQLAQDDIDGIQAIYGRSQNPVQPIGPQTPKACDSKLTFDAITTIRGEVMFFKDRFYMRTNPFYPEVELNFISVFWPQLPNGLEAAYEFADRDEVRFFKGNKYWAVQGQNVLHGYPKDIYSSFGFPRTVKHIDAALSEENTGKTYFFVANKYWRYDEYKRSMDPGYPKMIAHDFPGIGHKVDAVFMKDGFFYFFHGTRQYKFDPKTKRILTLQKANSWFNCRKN

[1] = biological target: Matrix metalloproteinase-9 (Homo sapiens, UniProt P14780); assay: Binding affinity was evaluated against matrix metalloprotease-9
Sequence of Matrix metalloproteinase-9 (P14780 whole entry): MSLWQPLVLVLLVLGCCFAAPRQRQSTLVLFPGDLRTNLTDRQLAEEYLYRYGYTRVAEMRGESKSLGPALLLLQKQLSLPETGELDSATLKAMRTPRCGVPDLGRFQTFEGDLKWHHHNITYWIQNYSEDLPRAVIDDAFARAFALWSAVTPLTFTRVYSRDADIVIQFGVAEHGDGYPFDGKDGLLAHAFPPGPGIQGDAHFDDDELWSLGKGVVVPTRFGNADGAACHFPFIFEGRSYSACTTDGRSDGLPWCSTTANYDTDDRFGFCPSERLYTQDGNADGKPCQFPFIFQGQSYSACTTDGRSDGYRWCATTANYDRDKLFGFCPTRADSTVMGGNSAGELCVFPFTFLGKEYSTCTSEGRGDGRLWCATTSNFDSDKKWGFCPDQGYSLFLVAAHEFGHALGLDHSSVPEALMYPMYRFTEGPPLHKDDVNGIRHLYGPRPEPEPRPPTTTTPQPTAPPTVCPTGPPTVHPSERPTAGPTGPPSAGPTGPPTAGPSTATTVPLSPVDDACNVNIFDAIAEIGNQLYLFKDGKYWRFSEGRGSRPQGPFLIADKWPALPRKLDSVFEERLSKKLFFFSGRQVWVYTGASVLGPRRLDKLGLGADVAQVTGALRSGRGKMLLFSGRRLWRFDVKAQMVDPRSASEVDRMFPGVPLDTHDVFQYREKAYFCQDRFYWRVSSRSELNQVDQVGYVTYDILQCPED

Sequence of Stromelysin-1 (P08254 whole entry): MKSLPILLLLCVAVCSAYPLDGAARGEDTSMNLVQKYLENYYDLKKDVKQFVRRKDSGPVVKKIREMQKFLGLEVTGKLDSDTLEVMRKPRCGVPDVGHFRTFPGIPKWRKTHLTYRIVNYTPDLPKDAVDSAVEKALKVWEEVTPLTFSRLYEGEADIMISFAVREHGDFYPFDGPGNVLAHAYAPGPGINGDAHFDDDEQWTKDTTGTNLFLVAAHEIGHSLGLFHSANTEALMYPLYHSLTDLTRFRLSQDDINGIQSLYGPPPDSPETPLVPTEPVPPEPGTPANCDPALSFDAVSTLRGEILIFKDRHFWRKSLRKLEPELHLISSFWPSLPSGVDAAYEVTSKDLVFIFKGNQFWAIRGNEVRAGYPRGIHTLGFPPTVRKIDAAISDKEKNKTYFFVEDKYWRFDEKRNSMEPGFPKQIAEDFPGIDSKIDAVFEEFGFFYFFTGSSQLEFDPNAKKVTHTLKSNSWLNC

Structure (SMILES): C[C@@H](NC(=O)[C@H](CCCCN)NC(=O)[C@H](CCCc1ccccc1)[C@@](C)(O)C(=O)NO)c1ccccc1
- Ki (Stromelysin-1): 168 nM
- Ki (Interstitial collagenase): 282 nM
- Ki [1]: 149 nM

Structure (SMILES): CNC(=O)[C@H](CCCN)NC(=O)[C@H](CCCc1ccccc1)[C@@](C)(O)C(=O)NO
- Ki (Stromelysin-1): 103 nM
- Ki (Interstitial collagenase): 18 nM
- Ki [1]: 5 nM

Structure (SMILES): CNC(=O)[C@H](Cc1ccc(OC)cc1)NC(=O)[C@H](CC(C)C)[C@](C)(O)C(=O)NO
- Ki (Stromelysin-1): > 10000 nM

Structure (SMILES): CC(C)(C)OC(=O)[C@H](Cc1ccccc1)NC(=O)[C@H](CCCc1ccccc1)[C@@](C)(O)C(=O)NO
- Ki (Stromelysin-1): 100 nM
- Ki (Interstitial collagenase): 198 nM
- Ki [1]: 34 nM

Structure (SMILES): CNC(=O)[C@H](Cc1ccc(OC)cc1)NC(=O)[C@H](CCc1ccccc1)[C@](C)(O)C(=O)NO
- Ki (Stromelysin-1): > 10000 nM

Structure (SMILES): CNC(=O)[C@H](Cc1ccc(OC)cc1)NC(=O)[C@H](Cc1ccccc1)[C@](C)(O)C(=O)NO
- Ki (Stromelysin-1): > 10000 nM

Structure (SMILES): CNC(=O)[C@H](CCCNC(=O)N1CCOCC1)NC(=O)[C@H](CCCc1ccccc1)[C@@](C)(O)C(=O)NO
- Ki (Stromelysin-1): 70 nM
- Ki (Interstitial collagenase): 53 nM
- Ki [1]: 4 nM

Structure (SMILES): CNC(=O)[C@H](CCCCN)NC(=O)[C@H](CCCc1ccccc1)[C@@](C)(O)C(=O)NO
- Ki (Stromelysin-1): 32 nM
- Ki (Interstitial collagenase): 15 nM
- Ki [1]: < 1 nM

Structure (SMILES): CNC(=O)[C@H](Cc1ccc(OC)cc1)NC(=O)[C@H](Cc1ccccc1)[C@@](C)(O)C(=O)NO
- Ki (Stromelysin-1): 526 nM
- Ki (Interstitial collagenase): 85 nM
- Ki [1]: 5 nM

Now those with a lower Ki (Stromelysin-1), led by results:

- Ki (Stromelysin-1): 28 nM
- Ki (Interstitial collagenase): 25 nM
- Ki [1]: 1 nM
Structure (SMILES): C[C@](O)(C(=O)NO)[C@@H](CCCc1ccccc1)C(=O)N[C@@H](CCCCN)C(=O)NCCc1ccccc1

- Ki (Stromelysin-1): 25 nM
- Ki (Interstitial collagenase): 33 nM
- Ki [1]: 2 nM
Structure (SMILES): CNC(=O)[C@H](Cc1ccc(OC)cc1)NC(=O)[C@H](CCc1ccccc1)[C@@](C)(O)C(=O)NO

- Ki (Stromelysin-1): 25 nM
- Ki (Interstitial collagenase): 167 nM
- Ki [1]: > 213 nM
Structure (SMILES): C[C@](O)(C(=O)NO)[C@@H](CCCc1ccccc1)C(=O)N[C@@H](Cc1ccccc1)C(=O)O

- Ki (Stromelysin-1): 24 nM
- Ki (Interstitial collagenase): 22 nM
- Ki [1]: 2 nM
Structure (SMILES): CNC(=O)[C@H](CCCNS(=O)(=O)N(C)C)NC(=O)[C@H](CCCc1ccccc1)[C@@](C)(O)C(=O)NO

- Ki (Stromelysin-1): 13 nM
- Ki (Interstitial collagenase): 13 nM
- Ki [1]: < 1 nM
Structure (SMILES): CNC(=O)[C@@H](NC(=O)[C@H](CCCc1ccccc1)[C@@](C)(O)C(=O)NO)C(C)(C)C

- Ki (Stromelysin-1): 13 nM
- Ki (Interstitial collagenase): 16 nM
- Ki [1]: 2 nM
Structure (SMILES): CNC(=O)[C@H](CCCNC(=O)OC(C)(C)C)NC(=O)[C@H](CCCc1ccccc1)[C@@](C)(O)C(=O)NO

- Ki (Stromelysin-1): 13 nM
- Ki (Interstitial collagenase): 0.6 nM
- Ki [1]: < 1 nM
Structure (SMILES): CNC(=O)[C@H](Cc1ccc(OC)cc1)NC(=O)[C@H](CC(C)C)[C@@](C)(O)C(=O)NO

- Ki (Stromelysin-1): 3 nM
- Ki (Interstitial collagenase): 2 nM
- Ki [1]: < 1 nM
Structure (SMILES): CNC(=O)[C@H](Cc1ccc(OC)cc1)NC(=O)[C@H](CCCc1ccccc1)[C@@](C)(O)C(=O)NO
